Reference: PMC3938723, “Learning from Host-Defense Peptides: Cationic, Amphipathic Peptoids with Potent Anticancer Activity” (PLoS ONE, 2014)
Non-standard residues stand in square brackets, D forms with d. Residues, ends and D or L forms follow the SMILES beside them. Nspe = C[C@H](NCC(=O)O)c1ccccc1; Nlys = NCCCCNCC(=O)O

Tests used:
[1] = Analytical RP-HPLC elution as relative measure of molecular hydrophobicity; type: physicochemical; details: percentage of acetonitrile at elution, analytic RP-HPLC, C18 column, linear water/acetonitrile (0.1% trifluoroacetic acid) gradient 5%-95% acetonitrile over 30 min
Excerpt: Peptoids were synthesized using an ABI 433A peptide synthesizer (Applied Biosystems, Inc.) on Rink amide MBHA resin (EMD Biosciences, Gibbstown, NJ) using the submonomer protocol, [24]. Briefly, the amine on the nascent chain is bromoacetylated or chloroacetylated followed by SN2 displacement of bromide or chloride by a primary amine to form the side chain. Resin-bound peptoids were then exposed to a mixture of trifluoroacetic acid (TFA): triisopropylsilane: water (95∶2.5∶2.5, volume ratio) for 10 minutes to cleave peptoids from the resin. Crude peptoids were purified by reversed-phase high performance liquid chromatography (RP-HPLC) (Waters Corporation) using a C18 column and a linear acetonitrile/water gradient. A final purity >95% as measured by analytical RP-HPLC (Waters Corporation) was achieved, and the identity of each peptoid was confirmed using electrospray ionization mass spectrometry (ESI/MS). Pexiganan was synthesized by standard Fmoc chemistry on an ABI 433A peptide synthesizer ([…]). Unless indicated otherwise, all reagents were purchased from Sigma Aldrich (St. Louis, MO). Among the submonomers used, Nspe was derived from (S)-N-(1-phenylethyl)amine; Npm from benzylamine ([…]); NHis from histamine (2-[4-imidazolyl]ethylamine); NLeu from isobutylamine; NLys from N-tert-butoxycarbonyl-1,4-butanediamine (CNH Technologies, MA). Guanidinylation of NLys was carried out according to the reported procedure. When NHis was used in the peptoid sequence, chloroacetic acid was used. 5(6)-Carboxyfluorescein was used to label the N-terminus of peptoid 1 [28].
Peptoids were utilized herein as a peptidomimetic scaffold to capture the cationic, amphipathic nature of anticancer peptides, as well as to improve molecular stability and to increase chemical diversity. The design of anticancer peptoids were derived from previous antimicrobial peptoids and were further optimized hererin to improve the activity and selectivity of peptoids against anionic membranes, [24], [25]. […] Several novel variants were designed based on peptoid 1 but with different charges, amphipathicity, length, and helicity to change their activity or selectivity. The sequences of these variants, the solvent composition at RP-HPLC elution as a relative measure of molecular hydrophobicity, molecular net charges and their charge-to-length ratio are summarized in Table 1. […] Pexiganan, a clinically-relevant peptide analog of magainin 2 which was developed for topical treatment for diabetic foot infection, and LL-37, the only known human cathelicidin which is a non-selective antimicrobial peptide, were also tested for comparison.

OVCAR3 (ovarian cancer) = assay: MTS cell viability assay, OVCAR3; type: cell-based; details: 72 h
Description: (§1) MCF-7, MCF-7/TxT50 and OVCAR-3 (available in ATCC) were kindly provided by Professor Branimir Sikic's lab at Stanford University, and were cultured in McCoy's 5A media (GIBCO) with 10% FBS and antibiotics. Primary dermal fibroblasts were gifts from Lifeline Cell Technology and were cultured <6 passages according to the protocol Lifeline provides. All the cells were cultured in cell incubators (Thermo Scientific) at 37°C with 5% CO2.
(§2) This assay is a colorimetric method for determining the number of viable cells in proliferation. Aliquots of 100 µl media containing 1×10^4 cells were distributed into each well of a 96-well plate (BD Falcon). The following day, when cell density reaches about ∼40% confluency, the cell media were removed and replaced with serial dilutions of peptoid stocks in culturing media. For peptoid dilutions, peptoid stocks were initially diluted in media at 100 µM and then diluted by half in series using a multichannel pipette, and maintained in 100 µl media for each concentration with triple repeats. After peptoid solutions were transferred onto cells in 96-well plates, cells were incubated at 37°C for certain time periods. Then 20 µl of the CellTiter 96 Aqueous Non-Radioactive cell proliferation assay (Promega) reagent which contains a tetrazolium compound, [3-(4,5-dimethylthiazol-2-yl)-5-(3-carboxymethoxyphenyl)-2-(4-sulfophenyl)-2H-tetrazolium, inner salt; MTS(a)], was added to each well and cells were further incubated for 2 h to metabolize. The absorbance of formazan products were measured at 490 nm in a microplate reader (Molecular Devices). Percentage of cell viability = (A -A testblank)/(A control -A blank)×100, where A is the absorbance of the test well and A control the average absorbance of wells with cells not treated with peptoids. A testblank (media, MTS, and diluted peptoids) and A blank (media and MTS) were background absorbances measured in the absence of cells.
(§3) The activity and selectivity of these peptoids against cancer cells were evaluated in vitro. Their cytotoxicity was tested in three cancer cell lines, MCF-7 (human breast cancer), LNCaP (human prostate cancer), and OVCAR-3 (human ovarian cancer). To estimate the selectivity of these peptoids in vitro, hemolytic activities of some peptoids were cited from previously published work (Table 2 **column), and the MRC-5 cell line (human fibroblasts derived from fetal lung tissues) and primary dermal fibroblasts were also tested as normal cell controls. Briefly, cells were treated with peptoids diluted in culturing media for certain time periods, and then cell viability was measured via MTS assays.

LNCaP (prostate cancer) = assay: MTS cell viability assay, LNCaP; type: cell-based; details: 72 h
Description: as §2, §3

MCF-7 (breast cancer) = assay: MTS cell viability assay, MCF-7; type: cell-based; details: 72 h
Description: as §1, §2, §3

[2] = tested on: MRC-5 (fetal lung fibroblast); assay: MTS cell viability assay, MRC-5; type: cell-based; details: 72 h
Description: as §1, §2, §3

human red blood cells = details: cited from earlier work
Excerpt: Table 2 Peptoid Cytotoxicity in cancer cell lines and control cells. | column: HC10 (µM) ** || The chain length is believed to influence not only the activity but also modes of action of cationic, amphipathic peptides, [34]. […] Thus we limited the chain length of peptoids to 13 residues at most, and studied 1 9mer which has the same charge-to-length ratio (CTLR) as peptoid ...

[3] = tested on: Primary dermal fibroblast; assay: MTS cell viability assay, primary dermal fibroblasts; type: cell-based; details: 72 h
Description: as §1, §2, §3

MCF-7/TxT50 cells = assay: MTS cell viability in multidrug-resistant MCF-7/TxT50 versus MCF-7; type: cell-based, human; details: MTS assay, 72 h treatment
Description: as §1
This assay is a colorimetric method for determining the number of viable cells in proliferation. Aliquots of 100 µl media containing 1×10^4 cells were distributed into each well of a 96-well plate (BD Falcon). The following day, when cell density reaches about ∼40% confluency, the cell media were removed and replaced with serial dilutions of peptoid stocks in culturing media. […] The absorbance of formazan products were measured at 490 nm in a microplate reader (Molecular Devices). Percentage of cell viability = (A -A testblank)/(A control -A blank)×100, where A is the absorbance of the test well and A control the average absorbance of wells with cells not treated with peptoids. A testblank (media, MTS, and diluted peptoids) and A blank (media and MTS) were background absorbances measured in the absence of cells. […]
Figure 3 Activity of docetaxel and peptoids in MCF-7 and MCF-7/TxT50 cells. […] Cell viability was measured with MTS assays.

C[C@@H](c1ccccc1)N(CC(N)=O)C(=O)CN(CCCCN)C(=O)CN(C(=O)CN(C(=O)CN(CCCCN)C(=O)CN(C(=O)CN(C(=O)CN(CCCCN)C(=O)CN(C(=O)CN(C(=O)CNCCCCN)[C@@H](C)c1ccccc1)[C@@H](C)c1ccccc1)[C@@H](C)c1ccccc1)[C@@H](C)c1ccccc1)[C@@H](C)c1ccccc1)[C@@H](C)c1ccccc1 [1 11mer, H-(NLys-Nspe-Nspe)3-NLys-Nspe-NH2] (H-[Nlys][Nspe][Nspe][Nlys][Nspe][Nspe][Nlys][Nspe][Nspe][Nlys][Nspe]-NH2)
HPLC elution [1]: 63.5 % ACN
LC50 OVCAR3 (ovarian cancer) (OVCAR3 (ovarian cancer)): 10 µM
LC50 LNCaP (prostate cancer) (LNCaP (prostate cancer)): 10 µM
LC50 MCF-7 (breast cancer) (MCF-7 (breast cancer)): 11 µM
LC50 MRC-5 (fetal lung fibroblast) [2]: 24 µM
HC10 (human red blood cells): 103 µM
LC50 Primary dermal fibroblast [3]: 19 µM

C[C@@H](c1ccccc1)N(CC(=O)N(CCCCN)CC(=O)N(CC(=O)N(CC(=O)N(CCCCN)CC(=O)N(CC(=O)N(CC(=O)N(CCCCN)CC(=O)N(CC(=O)N(CC(=O)N(CCCCN)CC(N)=O)[C@@H](C)c1ccccc1)[C@@H](C)c1ccccc1)[C@@H](C)c1ccccc1)[C@@H](C)c1ccccc1)[C@@H](C)c1ccccc1)[C@@H](C)c1ccccc1)C(=O)CN(C(=O)CNCCCCN)[C@@H](C)c1ccccc1 [1 13mer, H-(NLys-Nspe-Nspe)4-NLys-NH2] (H-[Nlys][Nspe][Nspe][Nlys][Nspe][Nspe][Nlys][Nspe][Nspe][Nlys][Nspe][Nspe][Nlys]-NH2)
HPLC elution [1]: 62.8 % ACN
LC50 OVCAR3 (ovarian cancer) (OVCAR3 (ovarian cancer)): 9 µM
LC50 LNCaP (prostate cancer) (LNCaP (prostate cancer)): 8 µM
LC50 MCF-7 (breast cancer) (MCF-7 (breast cancer)): 8 µM
LC50 MRC-5 (fetal lung fibroblast) [2]: 10 µM
HC10 (human red blood cells): 21 µM
LC50 Primary dermal fibroblast [3]: 14 µM

C[C@@H](c1ccccc1)N(CC(N)=O)C(=O)CN(C(=O)CN(CCCCN)C(=O)CN(C(=O)CN(C(=O)CN(CCCCN)C(=O)CN(C(=O)CN(C(=O)CNCCCCN)[C@@H](C)c1ccccc1)[C@@H](C)c1ccccc1)[C@@H](C)c1ccccc1)[C@@H](C)c1ccccc1)[C@@H](C)c1ccccc1 [1 9mer, H-(NLys-Nspe-Nspe)3-NH2] (H-[Nlys][Nspe][Nspe][Nlys][Nspe][Nspe][Nlys][Nspe][Nspe]-NH2)
HPLC elution [1]: 60 % ACN
LC50 OVCAR3 (ovarian cancer) (OVCAR3 (ovarian cancer)): 34 µM
LC50 LNCaP (prostate cancer) (LNCaP (prostate cancer)): 27 µM
LC50 MCF-7 (breast cancer) (MCF-7 (breast cancer)): 30 µM
LC50 MRC-5 (fetal lung fibroblast) [2]: 40 µM
HC10 (human red blood cells): 150 µM
LC50 Primary dermal fibroblast [3]: 32 µM

C[C@@H](c1ccccc1)N(CC(N)=O)C(=O)CN(C(=O)CN(CCCCN)C(=O)CN(Cc1ccccc1)C(=O)CN(Cc1ccccc1)C(=O)CN(CCCCN)C(=O)CN(C(=O)CN(C(=O)CN(CCCCN)C(=O)CN(Cc1ccccc1)C(=O)CN(Cc1ccccc1)C(=O)CNCCCCN)[C@@H](C)c1ccccc1)[C@@H](C)c1ccccc1)[C@@H](C)c1ccccc1 [1-Npm2,3,8,9, H-(NLys-Npm-Npm-NLys-Nspe-Nspe)2-NH2]
HPLC elution [1]: 63.3 % ACN
LC50 OVCAR3 (ovarian cancer) (OVCAR3 (ovarian cancer)): 11 µM
LC50 LNCaP (prostate cancer) (LNCaP (prostate cancer)): 10 µM
LC50 MCF-7 (breast cancer) (MCF-7 (breast cancer)): 9 µM
LC50 MRC-5 (fetal lung fibroblast) [2]: 18 µM
HC10 (human red blood cells): 80 µM
LC50 Primary dermal fibroblast [3]: 21 µM

CC(=O)O[C@@]12CO[C@@H]1C[C@H](O)[C@@]1(C)C(=O)[C@H](O)C3=C(C)[C@@H](OC(=O)[C@H](O)[C@@H](NC(=O)OC(C)(C)C)c4ccccc4)C[C@@](O)([C@@H](OC(=O)c4ccccc4)[C@H]21)C3(C)C [Docetaxel]
activity in MCF-7/TxT50 (MDR1 overexpressing) compared to wild-type MCF-7 (MCF-7/TxT50 cells): resistant

C[C@@H](c1ccccc1)N(CC(N)=O)C(=O)CN(CCCCN)C(=O)CN(CCCCN)C(=O)CN(C(=O)CN(C(=O)CN(CCCCN)C(=O)CN(C(=O)CN(CCCCN)C(=O)CN(CCCCN)C(=O)CN(C(=O)CN(C(=O)CNCCCCN)[C@@H](C)c1ccccc1)[C@@H](C)c1ccccc1)[C@@H](C)c1ccccc1)[C@@H](C)c1ccccc1)[C@@H](C)c1ccccc1 [1-NLys5,11, H-(NLys-Nspe-Nspe-NLys-NLys-Nspe)2-NH2] (H-[Nlys][Nspe][Nspe][Nlys][Nlys][Nspe][Nlys][Nspe][Nspe][Nlys][Nlys][Nspe]-NH2)
HPLC elution [1]: 51.2 % ACN
LC50 OVCAR3 (ovarian cancer) (OVCAR3 (ovarian cancer)): 37 µM
LC50 LNCaP (prostate cancer) (LNCaP (prostate cancer)): 25 µM
LC50 MCF-7 (breast cancer) (MCF-7 (breast cancer)): 31 µM
LC50 MRC-5 (fetal lung fibroblast) [2]: 41 µM
HC10 (human red blood cells): >100 µM
LC50 Primary dermal fibroblast [3]: 34 µM
